In one test the test system is H1299. Description: Cellular proliferation assay (Alamar blue), H1299. It is filed as cell-based. The note with it: Homo sapiens, NCI-H1299, H1299 cells; 10% FCS; 72 h with compound; Alamar blue 4 h; read-out: pIC50 H1299 (converted). A digest of the protocol:
(§1)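 Viable cell number is determined by Alamar blue conversion after cells are treated with compound for 72 hours, following 24 hours of growth without compound in 10% FCS. The effect is calculated against control cells.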
In general terms: Alamar Blue is a resazurin reagent that responds to reducing activity.

The subject of a further test is HCT-116. Description: Cellular proliferation assay (Alamar blue), HCT-116. It is filed as cell-based. The settings on record: Homo sapiens; HCT-116 cells; 10% FCS; 72 h with compound; Alamar blue 4 h; read-out: pIC50 HCT-116 (converted). A digest of the protocol:
(§2)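 Read-out: resazurin-based Alamar blue fluorescence at 544/590 nm, with dye left 24 h on PC3 and A2780, 6 h on U87-MG and 4 h on HCT-116. Beforehand, cells grew 24 h compound-free, then 72 h with compound, in 10% FCS at 37° C./5% CO2. Values are expressed against untreated controls.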

The subject of the next test is PC3. Nature of the test: Cellular proliferation assay (Alamar blue), PC3. It is filed as cell-based. The settings on record: Homo sapiens, PC-3, PC-3 cells; 10% FCS; 72 h with compound; Alamar blue 24 h; read-out: pIC50 PC-3 (converted). A digest of the protocol: as §2
The subject of the next test is MDA-MB-231. Description: Cellular proliferation assay (Alamar blue), MDA-MB-231. Format: cell-based. The settings on record: Homo sapiens, MDA-MB-231, MDA-MB-231 cells; 10% FCS; 72 h with compound; Alamar blue 24 h; read-out: pIC50 MDA/MB231 (converted). Put shortly:
as §1

Another test has as its target T1, PLK4 (h) (Homo sapiens, UniProt O00444).
T1 sequence (O00444 1-970): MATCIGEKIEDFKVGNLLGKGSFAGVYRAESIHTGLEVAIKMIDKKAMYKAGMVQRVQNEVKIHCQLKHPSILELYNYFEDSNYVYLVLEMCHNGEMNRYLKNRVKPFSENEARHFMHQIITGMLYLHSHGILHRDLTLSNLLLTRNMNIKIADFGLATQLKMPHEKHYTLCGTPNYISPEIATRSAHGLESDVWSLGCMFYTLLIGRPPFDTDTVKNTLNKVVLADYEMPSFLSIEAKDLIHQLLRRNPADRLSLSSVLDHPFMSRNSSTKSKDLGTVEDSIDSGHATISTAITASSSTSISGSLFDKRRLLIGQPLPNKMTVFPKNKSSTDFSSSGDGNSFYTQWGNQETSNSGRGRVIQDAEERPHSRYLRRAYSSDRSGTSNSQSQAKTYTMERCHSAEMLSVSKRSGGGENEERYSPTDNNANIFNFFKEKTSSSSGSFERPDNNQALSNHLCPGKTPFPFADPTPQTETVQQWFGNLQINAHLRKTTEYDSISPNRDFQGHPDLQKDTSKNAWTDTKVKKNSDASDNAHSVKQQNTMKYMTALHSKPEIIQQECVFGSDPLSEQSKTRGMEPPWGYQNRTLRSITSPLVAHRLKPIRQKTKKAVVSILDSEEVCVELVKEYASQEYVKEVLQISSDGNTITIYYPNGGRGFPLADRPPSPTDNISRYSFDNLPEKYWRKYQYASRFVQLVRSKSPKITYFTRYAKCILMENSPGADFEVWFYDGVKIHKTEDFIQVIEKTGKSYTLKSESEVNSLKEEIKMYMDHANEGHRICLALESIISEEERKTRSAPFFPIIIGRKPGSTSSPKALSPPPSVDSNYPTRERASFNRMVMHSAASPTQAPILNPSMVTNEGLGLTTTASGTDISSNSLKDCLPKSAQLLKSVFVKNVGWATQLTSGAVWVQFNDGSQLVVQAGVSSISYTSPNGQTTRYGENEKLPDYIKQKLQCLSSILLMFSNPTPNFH
Nature of the test: PLK-4 human kinase scintillation proximity assay (SPA). It is filed as biochemical. The note with it: 1 μM ATP, 60 minutes at r.t., read-out: PLK4 pIC50 (converted). Put shortly: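 Scintillation proximity read-out: EDTA-stopped reactions were captured on streptavidin SPA beads after PLK4 (19 μg/ml) had phosphorylated 10 μM biotin-peptide for 60 min at room temperature, using 1 μM ATP spiked with 2 nM 33P-ATP in pH 8.0 HEPES buffer.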
(In general: SPA uses beads or plates that emit light when radiolabelled molecules are held near them.)

A further test has as its system A2780. Description: Cellular proliferation assay (Alamar blue), A2780. The settings on record: Homo sapiens, A2780, A2780 cells; 10% FCS; 72 h with compound; Alamar blue 24 h; read-out: pIC50 A2780 (converted). Format: cell-based. A digest of the protocol:
as §2

A further test deals with U87-MG. Description: Cellular proliferation assay (Alamar blue), U87-MG. Format: cell-based. The settings on record: Homo sapiens, U-87 MG; U87-MG cells; 10% FCS; 72 h with compound; Alamar blue 6 h; read-out: pIC50 U87MG (converted). Put shortly:
as §2

As for `COc1ccc2cc1OCC(=O)N(C(C)C)CCCN(C)Cc1c[nH]c3ncnc(c13)N2` [Compound 12], the IC50 in the test with H1299 was over 10 µM; in the test with HCT-116, 7.94 µM; with PC3 it was over 10 µM; in the test on MDA-MB-231, over 10 µM; on PLK4 (h), 0.0794 µM; with A2780 it was 5.01 µM. Further, the IC50 with U87-MG was 6.31 µM.

With `COc1cc2cc(c1OC)OCC(=O)N(C)CCCN(C)Cc1c[nH]c3ncnc(c13)N2` [Compound 57], the IC50 in the test with H1299 is over 10 µM; with HCT-116, over 10 µM; with PC3, over 10 µM; in the test with MDA-MB-231, over 10 µM; at PLK4 (h) it was 3.98 µM; in the test on A2780 it was over 10 µM. Besides, the IC50 in the test on U87-MG is over 10 µM.

On to `CN1CCCN(C)C(=O)COc2cc(ccc2NC(=O)Nc2cccc(Cl)c2)Nc2ncnc3[nH]cc(c23)C1` [Compound 67], for which the IC50 in the test with H1299 was 2.51 µM; with HCT-116, 0.794 µM; in the test with PC3, over 10 µM; in the test with MDA-MB-231 it was over 10 µM; on PLK4 (h) it was 0.0631 µM; in the test with A2780 it was 2.51 µM. Further, in the test with U87-MG, the IC50 is over 10 µM.

Take `CCOCCCOc1ccc2cc1OCC(=O)N(C)CCCN(C)Cc1c[nH]c3ncnc(c13)N2` [Compound 130]: the IC50 in the test with H1299 is 1.58 µM; in the test on HCT-116, 0.631 µM; in the test with PC3, 5.01 µM; in the test on MDA-MB-231, 3.16 µM; on PLK4 (h) it was 0.0398 µM; with A2780, 0.501 µM. The IC50 in the test on U87-MG was 2 µM.

With `CN1CCCN(C)C(=O)CCc2cc(ccc2N2CCOCC2)Nc2ncnc3[nH]cc(c23)C1` [Compound 56], the IC50 in the test with H1299 is over 10 µM; with HCT-116 it was over 10 µM; in the test with PC3, over 10 µM; with MDA-MB-231 it was over 10 µM; on PLK4 (h), 5.01 µM; in the test on A2780, over 10 µM. The IC50 in the test with U87-MG is over 10 µM.

With `CN1CCCN(C)C(=O)COc2cc(ccc2Cl)Nc2ncnc3[nH]cc(c23)C1` [Compound 14], the IC50 in the test on H1299 was over 10 µM; with HCT-116 it was 0.631 µM; with PC3, over 10 µM; in the test on MDA-MB-231, over 10 µM; on PLK4 (h), 0.0501 µM; in the test with A2780, 3.98 µM. For the same compound, the IC50 in the test on U87-MG is 0.794 µM.

`CN1CCCN(C)C(=O)COc2cc(ccc2NC(=O)NCC2CC2)Nc2ncnc3[nH]cc(c23)C1` [Compound 127]: the IC50 in the test on H1299 was over 10 µM; in the test on HCT-116 it was over 10 µM; in the test on PC3 it was over 10 µM; in the test on MDA-MB-231, over 10 µM; at PLK4 (h) it was 0.0501 µM; in the test on A2780, 5.01 µM. The IC50 in the test with U87-MG is over 10 µM.

Take `COc1ccc2cc1OCC(=O)N(C)CCCN(Cc1ccccc1)Cc1c[nH]c3ncnc(c13)N2` [Compound 61]: the IC50 with H1299 is over 10 µM; in the test on HCT-116, over 10 µM; in the test with PC3, over 10 µM; with MDA-MB-231 it was over 10 µM; on PLK4 (h) it was 0.1 µM; in the test with A2780 it was over 10 µM. Further, the IC50 with U87-MG was over 10 µM.

`COc1ccc2cc1OCC(=O)NCN(C)CCCc1c[nH]c3ncnc(c13)N2` [Compound 33]: the IC50 is over 10 µM in the test with H1299; over 10 µM in the test with HCT-116; over 10 µM in the test on PC3; over 10 µM with MDA-MB-231; 5.01 µM on PLK4 (h); over 10 µM in the test with A2780. The IC50 with U87-MG is over 10 µM.

`CN1CCCN(C)C(=O)Cc2cccc(c2)Nc2ncnc3[nH]cc(c23)C1` [Compound 24]: the IC50 is over 10 µM with H1299; 3.98 µM in the test on HCT-116; 10 µM in the test on PC3; over 10 µM in the test with MDA-MB-231; 0.398 µM at PLK4 (h); 5.01 µM in the test on A2780. Besides, the IC50 with U87-MG was 10 µM.

Turning to `COc1ccc2cc1OCC(=O)N(C)CCCNCc1c[nH]c3ncnc(c13)N2` [Compound 65], the IC50 in the test with H1299 was over 10 µM; in the test on HCT-116, over 10 µM; with PC3, over 10 µM; with MDA-MB-231 it was over 10 µM; at PLK4 (h), 0.0794 µM; in the test on A2780, over 10 µM. In the test on U87-MG, the IC50 was over 10 µM.

As to `COc1ccc2cc1OCC(=O)N1CCC[C@H]1CN(C)CCCc1c[nH]c3ncnc(c13)N2` [Compound 27], the IC50 with H1299 was over 10 µM; in the test with HCT-116, over 10 µM; in the test with PC3, over 10 µM; in the test with MDA-MB-231, over 10 µM; on PLK4 (h) it was 6.31 µM; with A2780 it was over 10 µM. Besides, the IC50 in the test with U87-MG is over 10 µM.

For the compound `COc1ccc2cc1OCC(=O)N(C)CCCN(CC1CC1)Cc1c[nH]c3ncnc(c13)N2` [Compound 59], the IC50 with H1299 was over 10 µM; with HCT-116, over 10 µM; with PC3, over 10 µM; with MDA-MB-231, over 10 µM; at PLK4 (h), 0.158 µM; with A2780, over 10 µM. Moreover, the IC50 with U87-MG is over 10 µM.

Consider `O=C1CCCCOc2cc(ccc2Cl)Nc2ncnc3[nH]cc(c23)CN2CCN1CC2` [Compound 104], for which the IC50 in the test with H1299 is over 10 µM; with HCT-116 it was over 10 µM; in the test on PC3 it was over 10 µM; with MDA-MB-231 it was over 10 µM; on PLK4 (h), 2 µM; in the test with A2780 it was over 10 µM. Besides, the IC50 with U87-MG was over 10 µM.

Turning to `COc1ccc2cc1OCC(=O)N(C1CCCCC1)CCCN(C)Cc1c[nH]c3ncnc(c13)N2` [Compound 64], the IC50 with H1299 is over 10 µM; in the test with HCT-116 it was over 10 µM; in the test on PC3, over 10 µM; in the test on MDA-MB-231, over 10 µM; at PLK4 (h) it was 0.251 µM; in the test on A2780, over 10 µM. The IC50 in the test with U87-MG is over 10 µM.

For `CN1CCCN(C)C(=O)COc2cc(ccc2NC(=O)NC2CCCCC2)Nc2ncnc3[nH]cc(c23)C1` [Compound 13], the IC50 in the test on H1299 was 3.98 µM; with HCT-116, 2 µM; in the test on PC3 it was over 10 µM; in the test with MDA-MB-231, over 10 µM; on PLK4 (h), 0.0251 µM; in the test on A2780, 1 µM. Further, the IC50 in the test on U87-MG was 3.98 µM.

On to `CN1CCN(C)C(=O)CCCCOc2cc(ccc2Cl)Nc2ncnc3[nH]cc(c23)C1` [Compound 49], for which the IC50 with H1299 is over 10 µM; in the test with HCT-116, over 10 µM; in the test on PC3, over 10 µM; in the test on MDA-MB-231 it was over 10 µM; on PLK4 (h) it was 3.16 µM; with A2780, over 10 µM. Further, the IC50 in the test with U87-MG was over 10 µM.

For the compound `COc1cc2cc(c1OC)OCCCCC(=O)N(C)CCN(C)Cc1c[nH]c3ncnc(c13)N2` [Compound 87], the IC50 in the test with H1299, in the test on HCT-116, with PC3, in the test on MDA-MB-231, on PLK4 (h) and in the test with A2780 was over 10 µM in each case. For the same compound, the IC50 in the test with U87-MG is over 10 µM.

Consider `COCCCOc1ccc2cc1OCC(=O)N(C)CCCN(C)Cc1c[nH]c3ncnc(c13)N2` [Compound 132], for which the IC50 in the test with H1299 is 3.98 µM; in the test with HCT-116, 1.58 µM; in the test with PC3, 3.98 µM; in the test on MDA-MB-231, 3.98 µM; at PLK4 (h), 0.0794 µM; with A2780 it was 1.26 µM. The IC50 with U87-MG was 2 µM.

The values above are taken from patent US8318731B2, “Pyrrolopyrimidines” (Janssen Pharmaceutica NV, priority 2007, dated 2012).
